Usually IC50 stands for the concentration that inhibits the measured activity by half. Usually EC50 stands for the midpoint of the concentration-response curve.

This passage reports IC50 and EC50 results from patent publication US20130109682A1, “CYCLIC ETHER COMPOUNDS USEFUL AS KINASE INHIBITORS” (NOVARTIS AG, priority 2010, published 2013).

Each structure is given as a SMILES string. Where two headings read alike, the source gives them in different places.

In test [1] the target is GSK3β (Homo sapiens, UniProt P49841). The experiment in a line: GSK3β ATP depletion assay. It counts as biochemical. The following applies: read-out: GSK3b IC50. The gist of the method: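 Human GSK3β (5 nM) preincubated 15 min with 10 μM biotinylated phospho-CREB peptide in pH 7.5 Tris buffer (15 mM MgCl2, 1 mM DTT, 0.1% BSA, 2.5% DMSO). Reaction started with 2 μM ATP and run to about 50% ATP depletion. Remaining ATP measured by KinaseGlo luminescence.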

For test [2], the system named is KMS11 (human myeloma cell line). The test can be described thus: Cell proliferation assay (CellTiter-Glo), KMS11. It counts as cell-based. The following applies: Homo sapiens, KMS-11. The procedure, abridged: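 KMS11 cells in IMDM with 10% FBS and sodium pyruvate, seeded at 2000 cells/well on assay day. Compound added at 2× to equal volume of cells, incubated 3 days at 37° C. Viability read by CellTiter-Glo luminescence; EC50 derived.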

Test [3] has as its target T1, FLT3D835Y kinase (Homo sapiens, UniProt P36888, D835Y).
T1 sequence (P36888 27-993 D835Y): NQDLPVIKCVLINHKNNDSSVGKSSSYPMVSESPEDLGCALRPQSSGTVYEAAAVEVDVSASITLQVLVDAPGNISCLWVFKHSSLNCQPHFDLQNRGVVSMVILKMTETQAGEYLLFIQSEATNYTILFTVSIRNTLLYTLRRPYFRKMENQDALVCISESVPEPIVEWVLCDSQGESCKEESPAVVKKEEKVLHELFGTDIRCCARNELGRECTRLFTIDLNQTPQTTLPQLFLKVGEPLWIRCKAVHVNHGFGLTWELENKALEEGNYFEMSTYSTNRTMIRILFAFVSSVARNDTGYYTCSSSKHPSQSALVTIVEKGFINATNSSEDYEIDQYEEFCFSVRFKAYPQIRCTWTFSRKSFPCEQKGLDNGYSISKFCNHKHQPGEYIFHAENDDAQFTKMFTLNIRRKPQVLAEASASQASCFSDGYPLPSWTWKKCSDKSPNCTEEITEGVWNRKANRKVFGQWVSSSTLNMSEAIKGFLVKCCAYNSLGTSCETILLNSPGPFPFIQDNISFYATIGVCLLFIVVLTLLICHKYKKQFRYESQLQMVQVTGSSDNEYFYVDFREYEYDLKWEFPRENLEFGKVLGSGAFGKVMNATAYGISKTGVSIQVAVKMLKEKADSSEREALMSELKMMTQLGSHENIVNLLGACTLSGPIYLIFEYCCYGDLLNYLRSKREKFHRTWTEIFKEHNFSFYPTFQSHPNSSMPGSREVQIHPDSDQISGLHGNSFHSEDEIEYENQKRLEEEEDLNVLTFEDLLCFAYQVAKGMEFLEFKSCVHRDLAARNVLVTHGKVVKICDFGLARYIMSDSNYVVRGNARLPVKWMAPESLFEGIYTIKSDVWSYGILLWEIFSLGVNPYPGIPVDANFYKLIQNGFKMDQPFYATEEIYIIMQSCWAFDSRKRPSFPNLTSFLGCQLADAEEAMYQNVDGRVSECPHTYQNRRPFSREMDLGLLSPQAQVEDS
The test can be described thus: FLT3D835Y kinase inhibition assay (LanthaScreen TR-FRET). The format is biochemical. The following applies: read-out: FLT3 IC50. As for the experimental part: FLT3D835Y Kinase Inhibition Assay
LanthaScreen™ is the detection of Time-Resolved Fluorescence Resonance Energy Transfer (TR-FRET) using lanthanide chelates to measure interactions between various binding partners. The application of TR-FRET to assay kinase activity was first described by Mathis (1995). A TR-FRET assay was used to measure FLT3D835Y kinase inhibitory activity. The assay panel was run on a Biomek FX liquid handling workstations. To the assay plates containing […] compound or control solutions, 4.5 μL of buffer A (50 mM TRIS-HCl pH 7.4, 2 mM DTT, 0.02% Tween 20, 0.02 mM Na3VO4, H2O nanpure) including a generic concentration of ATP (2 μM f.c.) was added per well, followed by […] of buffer B (4 uM ATP in Buffer A) including a generic concentration of polyEAY (50 nM f.c.), FLT3D835Y kinase, and divalent cations. Final concentration of kinase and cations were: [FLT3D835Y kinase]=5.7 nM, [Mg]=3 mM, [Mn]=3 mM. After 1 hour of incubation the kinase reactions were stopped by the addition of 4.5 μL of stop solution D (50 mM EDTA, 20 mM TRIS-HCl pH 7.4, 0.04% NP-40) immediately followed by 4.5 μL of buffer A (50 mM TRIS-HCl pH 7.4, 2 mM DTT, 0.02% Tween 20, 0.02 mM Na3VO4, H2O nanpure) including the Tb-labeled P-20 antibody to give a total detection volume of […]. After an incubation time of 45 min in the dark, the plates were transferred into the Pherastar fluorescence reader for counting. The effect of compound on the enzymatic activity was obtained from the linear progress curves and determined from one reading (end point measurement).

Chain of GSK3β (P49841 whole entry, species assumed): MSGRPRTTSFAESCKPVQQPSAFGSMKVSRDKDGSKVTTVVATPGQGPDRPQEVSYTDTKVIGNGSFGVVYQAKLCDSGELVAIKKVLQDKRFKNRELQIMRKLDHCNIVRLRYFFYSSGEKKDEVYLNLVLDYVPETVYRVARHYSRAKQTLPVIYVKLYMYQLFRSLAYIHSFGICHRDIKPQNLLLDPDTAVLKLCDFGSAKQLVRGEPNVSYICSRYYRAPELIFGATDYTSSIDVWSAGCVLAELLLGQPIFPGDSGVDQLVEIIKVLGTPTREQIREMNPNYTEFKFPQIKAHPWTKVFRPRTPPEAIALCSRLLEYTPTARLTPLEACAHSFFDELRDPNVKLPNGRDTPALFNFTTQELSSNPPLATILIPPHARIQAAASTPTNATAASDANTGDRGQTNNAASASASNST

`C=C1[C@@H](O)C[C@@H](c2ccncc2NC(=O)c2nc(-c3ccccc3)cnc2N)OC12CC2` [Example 5, 3-amino-N-(4-((5S,7S)-7-hydroxy-8-methylene-4-oxaspiro[2.5]octan-5-yl)pyridin-3-yl)-6-phenylpyrazine-2-carboxamide]: in test [1], the half-inhibitory concentration (IC50) came out at 1 nM. In test [2] (KMS11-Luc cells), this compound came in with a concentration giving a half-maximal response (EC50) of 90 nM.
On the same counts, the results for `C[C@H]1O[C@@H](c2ccncc2NC(=O)c2nc(-c3ccccc3)ncc2N)C[C@@H](O)[C@]1(C)O` [Example 32, 5-amino-N-(4-((2R,4R,5S,6R)-4,5-dihydroxy-5,6-dimethyltetrahydro-2H-pyran-2-yl)pyridin-3-yl)-2-phenylpyrimidine-4-carboxamide] are 454 nM and 1120 nM.
On the same counts, the results for `Nc1ncc(-c2ccccc2)nc1C(=O)Nc1cnccc1[C@H]1C[C@@H](O)[C@H](O)[C@@H](CCl)O1` [Example 36, 3-amino-N-(4-((2R,4R,5S,6S)-6-(chloromethyl)-4,5-dihydroxytetrahydro-2H-pyran-2-yl)pyridin-3-yl)-6-phenylpyrazine-2-carboxamide] are 1 nM and 200 nM.
On the same counts, the results for `CC[C@H]1O[C@@H](c2ccncc2NC(=O)c2nc(-c3ccccc3)ncc2N)C[C@@H](O)[C@@H]1O` [Example 39, 5-amino-N-(4-((2R,4R,5S,6R)-6-ethyl-4,5-dihydroxytetrahydro-2H-pyran-2-yl)pyridin-3-yl)-2-phenylpyrimidine-4-carboxamide] are 267 nM and above 10000 nM.
With `C[C@H]1O[C@@H](c2ccncc2NC(=O)c2nc(-c3ccccc3)cnc2N)[C@H](F)[C@@H](O)[C@]1(C)O` [Example 58, 3-amino-N-(4-((2S,3R,4S,5S,6R)-3-fluoro-4,5-dihydroxy-5,6-dimethyltetrahydro-2H-pyran-2-yl)pyridin-3-yl)-6-phenylpyrazine-2-carboxamide], the IC50 in test [1] came to 1 nM. For the same compound, a half-maximal response in test [2] (KMS11-Luc cells) (EC50) required 1000 nM.
In the case of `C[C@@H]1O[C@H](c2ccncc2NC(=O)c2nc(-c3ccccc3)cnc2N)[C@@H](F)[C@H](O)[C@@]1(C)O` [Example 63, 3-amino-N-(4-((2R,3S,4R,5R,6S)-3-fluoro-4,5-dihydroxy-5,6-dimethyltetrahydro-2H-pyran-2-yl)pyridin-3-yl)-6-phenylpyrazine-2-carboxamide], in test [1], the half-inhibitory concentration (IC50) is 2 nM. Further, the half-maximal effective concentration (EC50) in test [2] (KMS11-Luc cells) was 1300 nM.
For the compound `C[C@H]1O[C@@H](c2ccncc2NC(=O)c2nc(-c3ccccc3)cnc2N)C[C@@H](O)[C@]1(C)O` [Example 84, 3-amino-N-(4-((2R,4R,5S,6R)-4,5-dihydroxy-5,6-dimethyltetrahydro-2H-pyran-2-yl)pyridin-3-yl)-6-phenylpyrazine-2-carboxamide], in test [1], the IC50 worked out at 1 nM. The EC50 in test [2] (KMS11-Luc cells) came out at 900 nM.
Take `C[C@@H]1O[C@H](c2ccncc2NC(=O)c2nc(-c3ccccc3)cnc2N)C[C@H](O)[C@@]1(C)O` [Example 86, 3-amino-N-(4-((2S,4S,5R,6S)-4,5-dihydroxy-5,6-dimethyltetrahydro-2H-pyran-2-yl)pyridin-3-yl)-6-phenylpyrazine-2-carboxamide]: the IC50 in test [1] was 3 nM. This compound also came in with an EC50 in test [2] (KMS11-Luc cells) of 2800 nM.
Take `Nc1ncc(-c2ccccc2)nc1C(=O)Nc1cnccc1[C@H]1C[C@@H](O)[C@@]2(O)CCCC[C@H]2O1` [Example 173, 3-amino-N-(4-((2R,4R,4aS,8aR)-4,4a-dihydroxyoctahydro-2H-chromen-2-yl)pyridin-3-yl)-6-phenylpyrazine-2-carboxamide]: the 50% inhibitory concentration (IC50) was found to be 1.4 nM in test [1] and 7.4 nM in test [3].
Regarding `CC[C@]1(O)[C@H](N)C[C@H](c2ccncc2NC(=O)c2ccc(F)c(-c3c(F)cccc3F)n2)O[C@@H]1C` [Example 232, N-(4-((2R,4R,5S,6R)-4-amino-5-ethyl-5-hydroxy-6-methyltetrahydro-2H-pyran-2-yl)pyridin-3-yl)-6-(2,6-difluorophenyl)-5-fluoropicolinamide], in test [3], the 50% inhibitory concentration (IC50) is 830 nM.
For `Nc1cc(F)c(-c2c(F)cccc2F)nc1C(=O)Nc1cnccc1[C@H]1C[C@@H](N)[C@@]2(O)CCCC[C@H]2O1` [Example 238, 3-amino-N-(4-((2R,4R,4aS,8aR)-4-amino-4a-hydroxyoctahydro-2H-chromen-2-yl)pyridin-3-yl)-6-(2,6-difluorophenyl)-5-fluoropicolinamide], the IC50 in test [1] (ATP depletion assay) stood at 393 nM; in test [3], 990 nM.
As to `COc1cc(F)c(-c2nc(C(=O)Nc3cnccc3[C@H]3C[C@@H](N)[C@](C)(O)[C@@H](C)O3)ccc2F)c(F)c1` [Example 242, N-(4-((2R,4R,5S,6R)-4-amino-5-hydroxy-5,6-dimethyltetrahydro-2H-pyran-2-yl)pyridin-3-yl)-6-(2,6-difluoro-4-methoxyphenyl)-5-fluoropicolinamide], the IC50 in test [1] (ATP depletion assay) came out at 471 nM; in test [3], 1200 nM.
The like results for `Nc1ncc(-c2ccccc2)nc1C(=O)Nc1cnccc1[C@@H]1C[C@H](N)[C@]2(O)CCCC[C@@H]2O1` [Example 243, 3-amino-N-(4-((2S,4S,4aR,8aS)-4-amino-4a-hydroxyoctahydro-2H-chromen-2-yl)pyridin-3-yl)-6-phenylpyrazine-2-carboxamide] were, in that order, 870 nM and 4100 nM.
For `CC(C)(C)[C@H]1O[C@@H](c2ccncc2NC(=O)c2nc(-c3ccccc3)cnc2N)C[C@H](N)[C@@H]1O` [Example 286, 3-amino-N-(4-((2R,4S,5S,6R)-4-amino-6-tert-butyl-5-hydroxytetrahydro-2H-pyran-2-yl)pyridin-3-yl)-6-phenylpyrazine-2-carboxamide], in test [1] (ATP depletion assay), the 50% inhibitory concentration (IC50) worked out at 0.5 nM. In test [2] (KMS11 cells, cell proliferation, read-out: KMS11-Luc EC50), the EC50 was 1970 nM.
`CC1(C)C[C@@H](N)C[C@H](c2ccncc2NC(=O)c2nc(-c3ccccc3)cnc2N)O1` [Example 296, 3-amino-N-(4-((2R,4S)-4-amino-6,6-dimethyltetrahydro-2H-pyran-2-yl)pyridin-3-yl)-6-phenylpyrazine-2-carboxamide]: the IC50 in test [1] (ATP depletion assay) was 9.4 nM; in test [3], 0.8 nM.
On the same counts, the results for `CC1(C)C[C@H](N)C[C@@H](c2ccncc2NC(=O)c2nc(-c3ccccc3)cnc2N)O1` [Example 297, 3-amino-N-(4-((2S,4R)-4-amino-6,6-dimethyltetrahydro-2H-pyran-2-yl)pyridin-3-yl)-6-phenylpyrazine-2-carboxamide] are 7.9 nM and 23 nM.
In the case of `C[C@@]1(O)[C@@H](N)C[C@@H](c2ccncc2NC(=O)c2nc(-c3ccccc3)cnc2N)OC12CC2` [Example 350, 3-amino-N-(4-((5S,7S,8R)-7-amino-8-hydroxy-8-methyl-4-oxaspiro[2.5]octan-5-yl)pyridin-3-yl)-6-phenylpyrazine-2-carboxamide], the IC50 in test [1] (ATP depletion assay) was found to be 7.8 nM; in test [3], 44 nM.
